Test results from BindingDB's records for doi:10.1016/S0960-894X(01)81044-1 (1991).

How the values were obtained:
[1] = Inhibitory activity against sweet almond Beta-glucosidase
[2] = as above; remark: listed apart in the source

With `OC[C@H]1OC[C@@H](O)[C@H]1O` [(2R,3R,4R)-2-Hydroxymethyl-tetrahydro-furan-3,4-diol] as the compound, how does the Ki [1] read?
The Ki was 14.8 mM.

Which Ki [1] does the source give for `OC[C@H]1OC[C@@H](O)[C@@H]1O` [(2R,3S,4R)-2-Hydroxymethyl-tetrahydro-furan-3,4-diol] here?
Its Ki is 36.2 mM.

With `OC[C@H]1OC[C@H](O)[C@@H](O)[C@@H]1O` [(2R,3S,4R,5S)-2-(hydroxymethyl)oxane-3,4,5-triol] as the compound, how does the Ki [1] read?
The Ki was 60 mM.

Which Ki [1] does the source give for `O[C@H]1[C@H](O)COC[C@@H]1O` [(3S,4R,5R)-Tetrahydro-pyran-3,4,5-triol] here?
Its Ki is 39 mM.

With `NCCc1cn(C(=O)c2ccccc2)cn1` [[4-(2-Amino-ethyl)-imidazol-1-yl]-phenyl-methanone] as the compound, how does the Ki [2] read?
Its Ki is 0.00011 mM.
